According to US20240067632A1, “WEE1 Degrading Compounds and Uses Thereof” (Bristol-Myers Squibb Company, priority 2022, published 2024):
Read-outs that look alike come from different tables or passages of the source.

Tests used:
[1] = test system: MKN45 cells; assay: MKN45 cell proliferation assay (Cell-Titer-Glo, 120 h); type: cell-based; conditions: for EC50: Homo sapiens, MKN-45, 120 h, Cell-Titer-Glo, read-out: MKN45 Cell Prolif. 120 hr (EC50); for MKN45 Cell Prolif. 120 hr (Ymin-Obs): minimal percent of DMSO control observed in the concentrations tested
Summary of the method: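 Growth inhibition was read as blank-corrected Cell-Titer-Glo luminescence expressed as percent DMSO control after 120 h at 37 C, 400 cells/well. Compounds tested in triplicate as 10-point half-log series from 1 or 10 uM, 0.1% DMSO; four-parameter fit gave EC50, and lowest observed percent control was reported as Ymin-obs.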

[2] = biological target: T1, WEE1 (Homo sapiens, UniProt P30291+Q96SW2); assay: WEE1-ePL degradation assay (LentiX-WEE1-ePL-GSPT1-ND cells, InCELL Hunter luminescence, 4 h); type: cell-based; conditions: 293T-LentiX WEE1-ePL cells; for DC50: read-out: 293T-LentiX WEE1-ePL Degradation 4 hr (EC50)
T1 construct: C-terminal ePL-tagged (DiscoverX, Fremont, CA) full-length WEE1 expression construct; expressed in transfected cells; host or cells: LentiX-HEK293T (Invitrogen), lentiviral transduction; co-expressing GSPT1-GN (G576N, lacking the first 158 amino acids)
Summary of the method: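 HEK293T cells stably expressing C-terminal ePL-tagged full-length WEE1, 2500 cells/well, treated 4 h at 37° C with a 10-point 3-fold series from 1 or 10 uM. Remaining WEE1-ePL read by InCELL Hunter luminescence after 30 min. EC50 came from a four-parameter logistic fit, with Ymax set from DMSO control.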

[3] = lower limit of the fit (0 = luciferase inhibitor, Ymax = DMSO control)

Row | Structure (SMILES) | EC50 ([1]; growth inhibition) [nM] | MKN45 Cell Prolif. 120 hr (Ymin-Obs) [1] | 293T-LentiX WEE1-ePL Degradation 4 hr (Ymin) [2, 3] | DC50 [2] [nM] | EC50 [1] [nM] | 293T-LentiX WEE1-ePL Degradation 4 hr (Ymin) ([2]; lower limit of the fit (Ymin=0 luciferase inhibitor, Ymax DMSO control))
1 | O=C1CCC(N2Cc3cc(O[C@H]4CCN(Cc5ccc(C(F)(F)F)cn5)C4)ccc3C2=O)C(=O)N1 (stereo partly drawn) [3-(1-oxo-5-{[(3S)-1-{[5-(trifluoromethyl)pyridin-2-yl]methyl}pyrrolidin-3-yl]oxy}-2,3-dihydro-1H-isoindol-2-yl)piperidine-2,6-dione] | 363 | 65.6 | 53.66 | 52.6 | – | –
2 | O=C1CCC(N2Cc3cc(O[C@H]4CCN(Cc5cncc(C(F)(F)F)c5)C4)ccc3C2=O)C(=O)N1 (stereo partly drawn) [3-(1-oxo-5-{[(3S)-1-{[5-(trifluoromethyl)pyridin-3-yl]methyl}pyrrolidin-3-yl]oxy}-2,3-dihydro-1H-isoindol-2-yl)piperidine-2,6-dione] | 842 | 54.82 | 33.76 | 36.9 | – | –
3 | O=C1CCC(N2Cc3cc(O[C@H]4CCN(Cc5cc6ccc(C(F)(F)F)cc6cn5)C4)ccc3C2=O)C(=O)N1 (stereo partly drawn) [3-(1-oxo-5-{[(3S)-1-{[7-(trifluoromethyl)isoquinolin-3-yl]methyl}pyrrolidin-3-yl]oxy}-2,3-dihydro-1H-isoindol-2-yl)piperidine-2,6-dione] | 1.14 | 6.875 | 31 | 1.47 | – | –
4 | [2H]c1nc2ccccc2cc1CN1CCC(Oc2ccc3c(c2)CN(C2CCC(=O)NC2=O)C3=O)C1 [3-(1-oxo-5-{[(3S)-1-{[(2-^2H)quinolin-3-yl]methyl}pyrrolidin-3-yl]oxy}-2,3-dihydro-1H-isoindol-2-yl)piperidine-2,6-dione] | 28.5 | 9.675 | 25.75 | 8.41 | – | –
5 | [2H]c1ccc2cc(CN3CCC(Oc4ccc5c(c4)CN(C4CCC(=O)NC4=O)C5=O)C3)ccc2n1 [3-(1-oxo-5-{[(3S)-1-{[(2-^2H)quinolin-6-yl]methyl}pyrrolidin-3-yl]oxy}-2,3-dihydro-1H-isoindol-2-yl)piperidine-2,6-dione] | 26.9 | 9.14 | 29.5 | 4.09 | – | –
6 | O=C1CCC(N2Cc3cc(O[C@@H]4CN(Cc5ccc6nc([C@H]7CCOC7)ccc6c5)C[C@H]4C(F)(F)F)ccc3C2=O)C(=O)N1 (stereo partly drawn) [3-(1-oxo-5-{[(3S,4R)-1-({2-[(3R)-oxolan-3-yl]quinolin-6-yl}methyl)-4-(trifluoromethyl)pyrrolidin-3-yl]oxy}-2,3-dihydro-1H-isoindol-2-yl)piperidine-2,6-dione] | – | 24.26 | – | 3.64 | 22.6 | 27.14
7 | O=C1CCC(N2Cc3ccc(O[C@H]4CCN(Cc5cnc6ccccc6c5)C4)cc3C2=O)C(=O)N1 (stereo partly drawn) [3-(1-oxo-6-{[(3S)-1-[(quinolin-3-yl)methyl]pyrrolidin-3-yl]oxy}-2,3-dihydro-1H-isoindol-2-yl)piperidine-2,6-dione] | 42.4 | 12.43 | 27.98 | 8.74 | – | –
8 | O=C1CCC(N2Cc3ccc(O[C@H]4CCN(Cc5ccc6ncccc6c5)C4)cc3C2=O)C(=O)N1 (stereo partly drawn) [3-(1-oxo-6-{[(3S)-1-[(quinolin-6-yl)methyl]pyrrolidin-3-yl]oxy}-2,3-dihydro-1H-isoindol-2-yl)piperidine-2,6-dione] | 14.6 | 82.37 | 88.79 | – | – | –
9 | Cc1ccc2cc(CN3CC[C@H](Oc4ccc5c(c4)CN(C4CCC(=O)NC4=O)C5=O)[C@H]3C)ccc2n1 (stereo partly drawn) [3-(5-{[(2R,3S)-2-methyl-1-[(2-methylquinolin-6-yl)methyl]pyrrolidin-3-yl]oxy}-1-oxo-2,3-dihydro-1H-isoindol-2-yl)piperidine-2,6-dione] | 339 | 28.935 | 34 | 16.7 | – | –
